Results on four compounds are retold here after patent US20200377545A1, “NOVEL ANTI-TUMOR COMPOUND AND APPLICATION THEREOF IN PREPARING ANTI-TUMOR DRUGS” (HANGZHOU XINGAO BIOTECHNOLOGY CO., LTD, priority 2018, published 2020).

Holding throughout (assay type): in vivo
Assay [1] concerns human ovarian cancer cell line SK-OV-3. As to the kind of experiment: Mouse subcutaneous transplanted tumor of human ovarian cancer cell line SK-OV-3. The conditions noted are these: SK-OV-3 tumor, once every two days for 20 days, cGAMP 5 mg/kg subcutaneous, oxaliplatin 2 mg/kg oral, platinum complexes 6 mg/kg oral; for Mean tumor weight (g): n = 10, mean ± SD; for Mean tumor inhibition rate (%): vs negative control group. Here is the method: (§1) BALB/c ordinary mice, male, 18-20 g in weight, 6-8 weeks old, SPF grade, purchased from Shanghai SLAC Laboratory Animal Co., Ltd.[Laboratory Animal Quality Certificate Number: SCXK (Shanghai) 2007-0005].
(§2) Mice are orally administrated, and [cis-Pt(NH3)2(cGAMP)] and the tetravalent platinum complex cis-[Pt(cGAMP)(NH3)2(Cl)(OH)] are both set to be 6 mg/kg in one dose group.
(§3) Positive control: cGAMP, 5 mg/kg in dose (subcutaneous) oxaliplatin, 2 mg/kg in dose (oral)
(§4) Administration routes: control group: cGAMP, 5 mg/kg in dose (subcutaneous)
(§5) Oxaliplatin, 2 mg/kg in dose (oral);
(§6) Immune activator platinum complex, 6 mg/kg in dose (oral)
(§7) Administration volume: 100 μl/animal; number of times of administration: continuous administration for 20 days, once every two days.
(§8) Mouse colorectal cancer cell line CT26, mouse Lewis lung cancer cell line LL/2, human ovarian cancer cell line SK-OV-3, and human melanoma cell line A375, which all purchased from the Cell Bank of the Chinese Academy of Sciences.
(§9) The 5 groups are administered once every two days for 20 consecutive days. 20 days later, the mice are killed and the tumors are weighed. Tumor inhibition rate=[1−mean tumor weight of experimental group/mean tumor weight of group A)]×100%.
(§10) Data is expressed with x±s, and processed with SPSS10.0 software. The significance of the difference between tumor weights of all groups is compared by a one-way ANOVA test. The significance level a=0.05.

The subject of assay [2] is mouse Lewis lung cancer cell line LL/2. The experiment in a line: Subcutaneous transplanted tumor of mouse Lewis lung cancer cell line LL-2 in mice. The settings on record: C57 mouse, LL-2 tumor, once every two days for 20 days, cGAMP 5 mg/kg subcutaneous, oxaliplatin 2 mg/kg oral, platinum complexes 6 mg/kg oral; for Mean tumor weight (g): n = 10, mean ± SD; for Mean tumor inhibition rate (%): vs negative control group. On the procedure: as §2, §3, §4, §5, §6, §7, §8, §9, §10

In assay [3] the test system is human melanoma cell line A375. The experiment in a line: Mouse subcutaneous transplanted tumor of human melanoma cell line A375. The settings on record: once every two days for 20 days, cGAMP 5 mg/kg subcutaneous, oxaliplatin 2 mg/kg oral, platinum complexes 6 mg/kg oral; for Mean tumor weight (g): n = 10, mean ± SD; for Mean tumor inhibition rate (%): vs negative control group. On the procedure: as §1, §2, §3, §4, §5, §6, §7, §8, §9, §10

In assay [4] the test system is mouse colorectal cancer cell line CT26. As to the kind of experiment: Subcutaneous transplanted tumor of mouse colorectal cancer cell CT26 in mice. The conditions noted are these: for Mean tumor weight (g) / Mean tumor inhibition rate (%): BalB/C mouse, CT26 tumor, once every two days for 20 days, cGAMP 5 mg/kg subcutaneous, oxaliplatin 2 mg/kg oral, platinum complexes 6 mg/kg oral; for Mean tumor weight (g): n = 10, mean ± SD; for Mean tumor inhibition rate (%): vs negative control group; for Inhibition of the growth of subcutaneous transplanted tumors (result in words): summary statement for all four tumor models (Tables 1-4), 20 days after administration, tumor weights significantly lower than negative control (P<0.05, P<0.01). Here is the method: as §1, §2, §3, §4, §5, §6, §7, §8, §9, §10

As to “cis-[Pt(cGAMP)(NH3)2(Cl)(OH)] [cGAMP-tetravalent cisplatin]”, the “Mean tumor weight (g)” value in assay [1] is on record as 0.813 ± 0.226 (g); in assay [2], 0.784 ± 0.232 (g); in assay [3], 0.794 ± 0.224 (g); in assay [4], 0.689 ± 0.224 (g). For the same compound, the “Mean tumor inhibition rate (%)” value in assay [1] is reported as 69.3%; in assay [2], 69.4%; in assay [3], 69.8%; in assay [4], 69.5%. Further, in assay [4], the “Inhibition of the growth of subcutaneous transplanted tumors (result in words)” value (shortened to “Inhibition of the growth … (result in words)”) is given as “obviously inhibit the growth of tumors”.
In the case of `Nc1nc2c(ncn2[C@@H]2O[C@@H]3COP(=O)(O)O[C@H]4[C@@H](O)[C@H](n5cnc6c(N)ncnc65)O[C@@H]4COP(=O)(O)O[C@@H]2[C@@H]3O)c(=O)[nH]1` [cGAMP, Cyclic [G(2′,5′)pA(3′,5′)p]], the “Mean tumor weight (g)” value in assay [1] is on record as 0.997 ± 0.212 (g); in assay [2], 0.980 ± 0.214 (g); in assay [3], 0.969 ± 0.216 (g); in assay [4], 0.840 ± 0.218 (g). The “Mean tumor inhibition rate (%)” value in assay [1] is reported as 62.3%; in assay [2], 56.6%; in assay [3], 63.0%; in assay [4], 62.8%. Further, the “Inhibition of the growth … (result in words)” value in assay [4] is recorded as “obviously inhibit the growth of tumors”.
Turning to `O=C1[O][Pt]2([NH][C@@H]3CCCC[C@H]3[NH]2)[O]C1=O` [Oxaliplatin, oxaliplatin], the “Mean tumor weight (g)” value in assay [1] is 0.989 ± 0.215 (g); in assay [2], 0.963 ± 0.223 (g); in assay [3] it was 0.989 ± 0.215 (g); in assay [4] it was 0.963 ± 0.223 (g). Moreover, the “Mean tumor inhibition rate (%)” value in assay [1] amounted to 62.6%; in assay [2], 62.4%; in assay [3] it was 62.4%; in assay [4] it was 57.3%. In addition, the “Inhibition of the growth … (result in words)” value in assay [4] is “obviously inhibit the growth of tumors”.
In the case of cis-[Pt(cGAMP)(NH3)2] [cGAMP-cisplatin], the “Mean tumor weight (g)” value in assay [1] is on record as 0.789 ± 0.218 (g); in assay [2], 0.758 ± 0.226 (g); in assay [3] it was 0.786 ± 0.218 (g); in assay [4], 0.648 ± 0.216 (g). In addition, the “Mean tumor inhibition rate (%)” value in assay [1] is recorded as 70.2%; in assay [2], 70.4%; in assay [3], 70.1%; in assay [4], 71.3%. Further, the “Inhibition of the growth … (result in words)” value in assay [4] was “obviously inhibit the growth of tumors”.
